In article PMC5855801, “Benzothiophenone Derivatives Targeting Mutant Forms of Estrogen Receptor-α in Hormone-Resistant Breast Cancers” (International Journal of Molecular Sciences, 2018):

Molecular target: T1, ERα (Homo sapiens, UniProt P03372)
T1 construct: endogenous in cells; host or cells: T47DKBluc (ATCC CRL-2865)
T1 sequence (P03372 1-595): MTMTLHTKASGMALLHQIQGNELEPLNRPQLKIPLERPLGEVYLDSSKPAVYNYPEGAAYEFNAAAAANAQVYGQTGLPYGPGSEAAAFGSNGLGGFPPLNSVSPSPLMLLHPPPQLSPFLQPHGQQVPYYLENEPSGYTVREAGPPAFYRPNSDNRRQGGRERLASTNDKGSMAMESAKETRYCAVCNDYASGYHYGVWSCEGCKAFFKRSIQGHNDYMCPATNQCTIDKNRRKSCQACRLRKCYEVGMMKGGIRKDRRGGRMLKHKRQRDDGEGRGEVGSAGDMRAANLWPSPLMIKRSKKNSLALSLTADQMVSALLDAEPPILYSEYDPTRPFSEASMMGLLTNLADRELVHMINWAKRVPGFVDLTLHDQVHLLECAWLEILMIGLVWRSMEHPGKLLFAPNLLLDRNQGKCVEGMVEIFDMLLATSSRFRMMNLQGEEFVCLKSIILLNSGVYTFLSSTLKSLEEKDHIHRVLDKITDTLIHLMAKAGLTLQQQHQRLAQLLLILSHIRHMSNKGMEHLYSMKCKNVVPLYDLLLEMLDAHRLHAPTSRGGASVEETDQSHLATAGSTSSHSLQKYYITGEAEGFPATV
Test: Estrogen-responsive luciferase reporter transcriptional assay in T47DKBluc cells
Type: cell-based
Settings: 1 nM E2, 24 h, read-out: IC50 against ERα in the luciferase reporter-based transcriptional assay
Method: T47DKBluc cells (ATCC® CRL-2865^TM, Manassa, VA, USA) stably transfected with a 3X-ERE–promoter–luciferase reporter gene construct, pGL2.TATA.Inr.luc.neo [38], were used to measure inhibition of ERα-driven transcriptional activity of the luciferase reporter.
This assay was performed as described previously. Briefly, ERα-positive T47DKBluc cells were grown in phenol red-free RPMI 1640 supplemented with 10% CSS for 5 days. The cells were seeded on 96-well plates (2 × 10^4 cells/well). After 24 h, the cells were treated with test compounds in the presence of 1 nM E2. Twenty four hours post-treatment, the cells were lysed with 50 μL of 1× passive lysis buffer (Promega, Madison, WI, USA). Twenty microliters of the lysate from each treatment were transferred onto a white, 96-well, flat-bottomed plate (Corning Life Sciences, Corelle, NY, USA), and the luminescent signal was measured after adding 50 μL of the luciferase assay reagent (Promega, Madison, WI, USA) on a Tecan M200Pro microplate reader (Tecan, Menedorf, Switzerland). Differences in growth were normalised against total protein concentration, which was measured by the bicinchoninic acid (BCA) assay.

## CC(=O)N(/N=C1\Sc2c(C)cccc2C1=O)c1ccccc1Cl [VPC-16606]
  IC50: 300 nM
